12 compounds from ChEMBL document CHEMBL1201862, “PubChem BioAssay data set” (2004) can be followed below.

Active and inactive are the calls of the source.

Assay [1] deals with T1, Histone-lysine N-methyltransferase NSD2 (Homo sapiens, UniProt O96028).
T1 sequence (O96028 whole entry): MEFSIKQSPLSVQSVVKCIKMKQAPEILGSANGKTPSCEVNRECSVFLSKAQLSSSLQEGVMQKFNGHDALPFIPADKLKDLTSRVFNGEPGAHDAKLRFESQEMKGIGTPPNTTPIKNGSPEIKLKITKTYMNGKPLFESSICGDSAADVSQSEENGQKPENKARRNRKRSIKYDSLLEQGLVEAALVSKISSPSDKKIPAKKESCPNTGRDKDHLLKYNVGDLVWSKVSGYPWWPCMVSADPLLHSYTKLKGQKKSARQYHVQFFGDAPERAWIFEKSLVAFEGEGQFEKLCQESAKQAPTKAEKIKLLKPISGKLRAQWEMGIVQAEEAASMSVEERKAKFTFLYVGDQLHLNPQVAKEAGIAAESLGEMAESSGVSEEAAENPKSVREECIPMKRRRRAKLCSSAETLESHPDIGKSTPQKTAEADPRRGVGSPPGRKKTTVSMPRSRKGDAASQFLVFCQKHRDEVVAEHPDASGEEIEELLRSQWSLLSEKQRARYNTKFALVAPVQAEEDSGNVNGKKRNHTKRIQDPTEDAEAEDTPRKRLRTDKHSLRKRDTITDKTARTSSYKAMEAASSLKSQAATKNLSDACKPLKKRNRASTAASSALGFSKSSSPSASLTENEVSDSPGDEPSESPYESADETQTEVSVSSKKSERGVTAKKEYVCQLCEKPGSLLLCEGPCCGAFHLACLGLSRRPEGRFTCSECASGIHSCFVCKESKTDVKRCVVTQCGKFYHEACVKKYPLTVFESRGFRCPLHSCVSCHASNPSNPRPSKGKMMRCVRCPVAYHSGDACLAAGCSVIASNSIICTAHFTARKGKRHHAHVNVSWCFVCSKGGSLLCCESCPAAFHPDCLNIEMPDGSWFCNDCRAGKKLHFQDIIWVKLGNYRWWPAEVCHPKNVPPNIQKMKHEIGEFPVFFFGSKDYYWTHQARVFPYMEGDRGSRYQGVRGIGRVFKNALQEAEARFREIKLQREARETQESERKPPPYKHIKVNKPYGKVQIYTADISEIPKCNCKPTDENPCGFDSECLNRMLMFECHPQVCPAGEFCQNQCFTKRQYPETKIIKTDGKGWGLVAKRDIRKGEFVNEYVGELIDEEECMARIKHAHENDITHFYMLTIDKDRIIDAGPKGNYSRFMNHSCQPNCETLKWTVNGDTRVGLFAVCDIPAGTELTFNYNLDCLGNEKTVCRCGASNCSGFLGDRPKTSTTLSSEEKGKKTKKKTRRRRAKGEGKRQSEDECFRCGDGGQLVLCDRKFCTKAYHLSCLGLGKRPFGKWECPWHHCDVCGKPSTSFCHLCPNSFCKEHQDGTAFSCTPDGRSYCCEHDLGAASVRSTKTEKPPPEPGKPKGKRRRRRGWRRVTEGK
The class given is biochemical.

Assay [2] has as its target Paired box protein Pax-8 (Homo sapiens, UniProt Q06710). The assay is described as follows: inhibitors of PAX8-driven TPO luciferase reporter, dose response, RMG-I cells, cherry-pick (AID 687027).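 Also: luciferase reporter driven by Pax8 target thyroperoxidase promoter measured by SteadyGlo luminescence.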 Type of assay: functional, cell-based.
The nature of assay [3]: cytotoxicity in OVCAR8 ovarian cancer cells, dose response, PAX8 project, cell-based, plate reader, dry powder samples (AID 743197). Type of assay: functional. As to conditions: OVCAR-8.
Assay [4] is described as follows: A549 cell cytotoxicity, dose response, cytotoxicity control, plate reader, cherry-pick, antagonist series (AID 743412). The class given is functional, cell-based.
Assay [5] is described as follows: LGR2 antagonists, dose response, cell-based, HEK293, CRE-luciferase reporter, cherry pick, set 2 (AID 743343).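 Also: transfected cells were stimulated with diluted bursicon conditioned medium after compound addition.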 Type of assay: functional.
The nature of assay [6]: HEK293 cell cytotoxicity, dose response, cytotoxicity control, plate reader, cherry-picked samples (AID 743446). The class given is functional, cell-based.
Assay [7] in a line: HepG2 cell cytotoxicity, dose response, cytotoxicity control, plate reader, cherry-pick, antagonist series (AID 743416). Type of assay: functional, cell-based.
Assay [8] in a line: MC4R antagonists, dose response, counter-screen for LGR2 antagonist project, cell-based, plate reader, cherry pick (AID 743444).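 Also: transfected HEK 293 cells stimulated with alpha-MSH peptide; potency of inhibitors of the alpha-MSH evoked signal.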 Type of assay: functional.
Assay [9] in a line: StAR promoter reporter inhibition counter-screen, dose response, counter-screen for LRH-1 inverse agonist project, cell-based, luminescence, luciferase reporter (AID 651969). The class given is functional.
For assay [10], the target named is Steroidogenic factor 1 (Homo sapiens, UniProt Q13285). The assay is described as follows: Counterscreen for inverse agonists of the liver receptor homolog-1 (LRH-1; NR5A2): Luminescence-based cell-based high throughput dose response assay to identify inverse agonists of the Steroidogenic Factor 1 Nuclear Receptor (SF1; NR5A1). Type of assay: functional.
Sequence of Steroidogenic factor 1 (Q13285 whole entry): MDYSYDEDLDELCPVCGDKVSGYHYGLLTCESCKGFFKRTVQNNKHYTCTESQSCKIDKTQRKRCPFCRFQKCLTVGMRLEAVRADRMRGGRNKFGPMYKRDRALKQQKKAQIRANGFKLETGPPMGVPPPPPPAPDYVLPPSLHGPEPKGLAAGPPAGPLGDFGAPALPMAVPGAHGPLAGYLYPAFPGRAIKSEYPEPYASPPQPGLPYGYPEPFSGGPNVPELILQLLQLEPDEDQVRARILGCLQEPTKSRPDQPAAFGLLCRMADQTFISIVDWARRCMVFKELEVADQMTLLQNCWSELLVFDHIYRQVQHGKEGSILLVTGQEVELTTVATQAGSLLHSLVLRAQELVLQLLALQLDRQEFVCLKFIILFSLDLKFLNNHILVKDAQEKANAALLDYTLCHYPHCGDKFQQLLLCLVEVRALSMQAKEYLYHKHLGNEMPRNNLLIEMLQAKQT
The target in assay [11] is Nuclear receptor subfamily 5 group A member 2 (Homo sapiens, UniProt O00482). The class given is functional, cell-based.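 Also: HEK293T cells transfected with LRH-1 and a StAR promoter luciferase reporter; potency for inhibitors that lower LRH-1 driven reporter light.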
Sequence of Nuclear receptor subfamily 5 group A member 2 (O00482 whole entry): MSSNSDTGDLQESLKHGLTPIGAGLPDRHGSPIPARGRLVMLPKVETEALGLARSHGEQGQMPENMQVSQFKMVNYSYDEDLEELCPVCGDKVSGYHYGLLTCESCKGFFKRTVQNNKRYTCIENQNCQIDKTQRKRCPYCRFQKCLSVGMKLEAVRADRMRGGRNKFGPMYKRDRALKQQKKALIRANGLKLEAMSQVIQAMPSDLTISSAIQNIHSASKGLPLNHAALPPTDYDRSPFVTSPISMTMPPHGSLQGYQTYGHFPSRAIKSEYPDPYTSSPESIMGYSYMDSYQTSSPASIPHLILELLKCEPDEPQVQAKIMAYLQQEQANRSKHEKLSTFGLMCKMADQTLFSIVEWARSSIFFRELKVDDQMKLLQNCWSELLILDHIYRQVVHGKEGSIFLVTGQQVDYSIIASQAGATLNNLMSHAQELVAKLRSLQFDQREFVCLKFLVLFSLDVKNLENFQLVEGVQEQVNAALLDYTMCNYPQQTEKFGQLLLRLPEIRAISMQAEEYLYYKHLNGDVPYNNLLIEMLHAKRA
Assay [12] in a line: HEK293T cytotoxicity, dose response, cytotoxicity control for miR-122 modulator project, cell-based, inhibitor set, cherry-pick, set 2 (AID 720697). The class given is functional.
Assay [13] is described as follows: Luminescence Cell-Based Dose Retest to Confirm Inhibitors of Cancer Stem Cells. [Related pubchem assays (depositor defined):AID2717, AID2721]. Type of assay: functional. As to conditions: Homo sapiens.
Assay [14] can be described thus: growth suppression of PTEN-null colon cells, dose response, cell-based, HCT116 PTEN knockout (AID 1047).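 Also: HCT116 colon tumor cells with PTEN knocked out; cells exposed to compound for 60 hours before readout; potency for loss of cell viability measured by luminescence.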 Type of assay: functional.
The target in assay [15] is T2, Probable nicotinate-nucleotide adenylyltransferase (Staphylococcus aureus (strain N315), UniProt P65502). The class given is functional, Staphylococcus aureus subsp. aureus N315.
T2 sequence (P65502 whole entry): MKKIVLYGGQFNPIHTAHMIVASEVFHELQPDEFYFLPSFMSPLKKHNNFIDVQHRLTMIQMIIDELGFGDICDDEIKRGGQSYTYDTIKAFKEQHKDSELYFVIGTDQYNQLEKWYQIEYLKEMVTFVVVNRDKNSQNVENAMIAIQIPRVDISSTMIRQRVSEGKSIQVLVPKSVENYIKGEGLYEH
A short description of assay [16]: growth suppression of beta-catenin-knockout colon cells, dose response, cell-based, HCT116, human colon tumor (AID 1045).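 Also: HCT116 colon tumor cells with beta catenin knocked out; cells exposed to compound for 60 hours.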 Type of assay: functional.
Assay [17] deals with T2, Probable nicotinate-nucleotide adenylyltransferase. Type of assay: functional, Staphylococcus aureus subsp. aureus N315. Conditions: read-out: IC50_Mean.
Assay [18] can be described thus: intracellular Trypanosoma cruzi inhibitors in host cells – cell-based, plate reader, cherry-pick samples, set 3, dose response (AID 651818).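 Also: compounds incubated with infected cells for about four days.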 The class given is functional.
Assay [19] is described as follows: NIH:OVCAR-3 ovarian cancer cell cytotoxicity, dose response, PAX8 inhibitor project, plate reader, dry powder samples (AID 743044). Type of assay: functional, cell-based.
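For IC50 Mean in this document: confirmatory dose-response retesting of NadD inhibitor hits first found in an ultra-high-throughput screen.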

Sequence of Paired box protein Pax-8 (Q06710 whole entry): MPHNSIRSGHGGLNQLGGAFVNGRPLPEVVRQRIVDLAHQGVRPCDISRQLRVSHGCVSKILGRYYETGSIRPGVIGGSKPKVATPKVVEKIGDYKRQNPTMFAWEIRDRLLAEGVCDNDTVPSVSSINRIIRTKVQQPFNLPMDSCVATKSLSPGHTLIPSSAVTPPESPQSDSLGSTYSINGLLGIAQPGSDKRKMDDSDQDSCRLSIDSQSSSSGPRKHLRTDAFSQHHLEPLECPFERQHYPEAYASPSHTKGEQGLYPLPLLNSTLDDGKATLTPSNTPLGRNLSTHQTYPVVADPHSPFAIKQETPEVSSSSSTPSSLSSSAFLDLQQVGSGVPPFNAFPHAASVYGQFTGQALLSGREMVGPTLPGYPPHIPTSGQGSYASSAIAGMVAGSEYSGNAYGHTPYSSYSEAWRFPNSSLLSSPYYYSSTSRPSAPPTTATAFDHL

On to `O=C(Nc1ccccn1)c1ccc2c(=O)n3c(nc2c1)CCCCC3`, for which, in assay [1], the AC50 is 7.7 µM (active).
For `C[C@H](CO)N1C[C@H](C)[C@@H](CN(C)Cc2ccc(Cl)c(Cl)c2)Oc2ccc(NC(=O)Nc3ccc(F)cc3)cc2CC1=O`, the AC50 in assay [2] was 13.2 µM (active); in assay [3] it was 54.4 µM (active).
As for `Cc1cccc(C)c1-n1nnnc1C(CCc1ccccc1)N1CCC(n2c(O)nc3ccccc32)CC1` (stereo not drawn), the AC50 is 16.6 µM (active) in [4]; 9.92 µM (active) in [5]; 6.12 µM (active) in assay [6]; 2.71 µM (active) in assay [7]; 8.26 µM (active) in [8].
As for `CCOc1ccc(Cc2nnc(SCC(=O)Nc3ccc(C(C)=O)cc3)nc2O)cc1`, the IC50 in assay [9] was 35.9 µM (inactive); in assay [10], 5.1 µM (active); in assay [11], 13.5 µM (inactive).
Turning to `Cc1ccc(C)c(NC(=O)CSc2nnc(-c3[nH]nc4ccccc34)o2)c1`, the IC50 in assay [9] is 35.9 µM (inactive); in [10] it was 5.07 µM (active); in [11], 53.5 µM (inactive).
For the compound `CCOc1ccc(CCNC(=O)CN2C(=O)NC3(CCc4ccccc43)C2=O)cc1OCC` (stereo not drawn), the IC50 in [9] is 35.9 µM (inactive); in assay [10], 4.33 µM (active); in [11], 16.7 µM (inactive).
The like results for `COc1ccc(CCNC(=O)CN2C(=O)NC3(CCCCC3)C2=O)cc1` were, in that order, 35.9 µM (inactive), 1.74 µM (active) and 16.5 µM (inactive).
With `CN(C[C@H]1N[C@@H](CO)[C@@H]1c1ccc(C2=CCCC2)cc1)C(=O)c1ccccn1`, in [12], the AC50 was 2.46 µM (active).
As for `NS(=O)(=O)c1ccc(NC(=O)COC(=O)c2c3c(nc4ccccc24)/C(=C\c2ccc4c(c2)OCO4)CCC3)cc1`, the AC50 in assay [13] was 3.72 µM (active). For the same compound, the EC50 is 17.5 µM (active) in assay [14] and 18.3 µM (active) in [16]. The figures for the IC50 in [15] and in [17] were 11.9 µM (active) and 21.1 µM (active), respectively.
With `C[C@H]1CN([C@@H](C)CO)C(=O)Cc2cc(NC(=O)NC3CCCCC3)ccc2O[C@H]1CN(C)Cc1ccc(-c2ccccc2)cc1`, the AC50 was 5.8 µM (active) in assay [2], > 70 µM (inactive) in [3], 2.67 µM (active) in assay [18] and 54.3 µM (active) in [19].
Regarding `C[C@@H]1CN([C@H](C)CO)S(=O)(=O)c2ccc(-c3ccc(C(=O)N(C)C)cc3)cc2O[C@@H]1CN(C)C(=O)C1CCC1`, the AC50 in assay [12] was 0.493 µM (active).
Consider `Cc1ccc(-n2nc3c(c2NC(=O)c2ccc(Br)o2)CSC3)c(C)c1`, for which the IC50 in assay [15] is 2.11 µM (active); in assay [17], 8.03 µM (active).
